Common to all, as to format: physicochemical
Data set [1] can be described thus: Dynamic moisture adsorption and desorption analysis (DVS). Particulars: for crystal form after DVS test (XRPD): before and after DVS test. The protocol: The instrument model used for dynamic moisture adsorption and desorption analysis was IGA Sorp (Hidentity Isochema). The samples were measured in a gradient mode with a moisture range of 0% to 90%, wherein the humidity increment of each gradient was 10%.

The nature of data set [2]: Stability study of the crystal form I of compound A and the crystal form I of compound A p-toluenesulfonate (HPLC, XRPD). The protocol:
A certain amount of samples of the crystal form I of compound A and the crystal form I of compound A p-toluenesulfonate (Batch No.: PTSA-A1) were placed in a stability test chamber, and kept at 40° C./75%RH and 60° C. for 7 days, respectively. The samples were tested by HPLC and XRPD at various time points.

Data set [3] in a line: Solubility study in SGF, FaSSIF and FeSSIF (HPLC of filtrate, XRPD of solid). As to conditions: for Crystal form: XRPD of solid. The protocol:
The solubilities of the crystal form I of compound A and the crystal form I of compound A p-toluenesulfonate in SGF (simulated gastric fluid), FaSSIF (fasted state simulated intestinal fluid) and FeSSIF (fed state simulated intestinal fluid) were studied.
The solubilities of samples in SGF, FaSSIF and FeSSIF at 37° C. for 24 hours were determined. 40 mg of the sample was placed in a sample bottle, and 1.5 mL of solvent was added. The mixture was mixed well, and shaken on a shaker at 200 rpm for 24 hours. The suspension was filtered at 0.5, 2 and 24 hours. The filtrate was analyzed by HPLC, and the solid was tested by XRPD.

The nature of data set [4]: Grinding research of crystal forms (XRPD before and after grinding). Particulars: ground in a mortar at room temperature. The text has this: The solid XRPDs before and after grinding were compared.
Data set [5] is described as follows: Stability study of the crystal form VI of compound A (high temperature, high humidity, light).
Data set [6] can be described thus: Solubility study of the starting material (the crystal form I of compound A) in different solvents. As for the experimental part: About 2 mg of the starting material was weighed and added into a sample bottle, and different solvents were added respectively, until the starting material was dissolved.

Broadly, the Solubility is how much of the substance goes into solution per volume. A low value points to a poorly soluble substance.

Each structure is given as a SMILES string. In brackets after ≈: the same amount, converted by molar mass.

On to `Cc1ccc(S(=O)(=O)O)cc1.O=C(Nc1ccc(OC(F)(F)Cl)cc1)c1cnc(N2CC[C@@H](F)C2)c(-c2cnccn2)c1` [(R)-N-(4-(chlorodifluoromethoxy)phenyl)-6-(3-fluoropyrrolidin-1-yl)-5-(pyrazin-2-yl)nicotinamide p-toluenesulfonate], for which the water absorption entry is “about 0.39%” in data set [1] (0-80%RH) and “about 0.61%” in data set [1] (0-90%RH). In data set [1], the “crystal form after DVS test (XRPD)” value is recorded as “not changed”. For the same compound, the “hygroscopicity (DVS)” value in data set [1] (moisture range 0% to 90%) was “slightly hygroscopic”. Also, in data set [2] (7 days at 40° C./75% RH and 60° C.), the “crystal form stability (XRPD)” value is recorded as “remained unchanged”. Further, the “crystal form of the undissolved solid (XRPD)” value in data set [3] (FaSSIF and FeSSIF for 0.5 hours) is given as “changed”; in data set [3] (SGF for 24 hours) it was “changed”. Besides, the “solubility compared with the other form” value in data set [3] (FaSSIF and FeSSIF vehicles, 24 hours, 37° C.) was “higher solubility than that of the free base”. Also, the “dependence of solubility on pH” value in data set [3] (SGF, FaSSIF, FeSSIF, 37° C.) is “affected by pH value”. Further, in data set [3] (after 2 hours), the “solubility in a solution with a higher pH value” is “higher solubility”.

For `O=C(Nc1ccc(OC(F)(F)Cl)cc1)c1cnc(N2CC[C@@H](F)C2)c(-c2cnccn2)c1` [crystal form VI of compound A, (R)-N-(4-(chlorodifluoromethoxy)phenyl)-6-(3-fluoropyrrolidin-1-yl)-5-(pyrazin-2-yl)nicotinamide], the water absorption in data set [1] (0-80%RH) stood at 1.1852%; in data set [1] (0-90%RH) it was 1.7452%; in data set [1] (10%RH) it was 0.1389%. Also, in data set [1], the “crystal form after DVS test (XRPD)” value is reported as “not changed”. Further, the “solid form / crystallinity after grinding (XRPD)” value (“solid form / crystallinity” below) in data set [4] is listed as “slightly decreased”. Moreover, the “stability (appearance, crystal form and related substances)” value in data set [5] (10 days under the condition of light) is listed as “stable”; in data set [5] (30 days, 60° C., 25° C./92.5%RH, 40° C./75%RH, and light (visible 4500 Lux, near-UV 85µw/cm^2)) it was “stable”. For the same compound, in data set [5] (high temperature, high humidity, high temperature and high humidity, light), the “crystal form after stability test (XRPD)” value is given as “not changed”.

For `O=C(Nc1ccc(OC(F)(F)Cl)cc1)c1cnc(N2CC[C@@H](F)C2)c(-c2cnccn2)c1` [The crystal form I of compound A], the Purity in data set [2] (40° C./75% RH, Day 0, HPLC) is given as 96.1%; in data set [2] (40° C./75% RH, Day 3, HPLC) it was 97.1%; in data set [2] (40° C./75% RH, Day 7, HPLC), 97.1%; in data set [2] (60° C., Day 0, HPLC), 96.1%; in data set [2] (60° C., Day 3, HPLC), 96.7%; in data set [2] (60° C., Day 7, HPLC), 97.1%. For the same compound, the Crystal form result is recorded as “Initial crystal form” in data set [2] (40° C./75% RH, Day 3, XRPD); “Initial crystal form” in data set [2] (40° C./75% RH, Day 7, XRPD); “Initial crystal form” in data set [2] (60° C., Day 3, XRPD); “Initial crystal form” in data set [2] (60° C., Day 7, XRPD); “Initial crystal form” in data set [3] (FaSSIF, 37° C., 0.5 h); “Changed” in data set [3] (FaSSIF, 37° C., 2 h). Further, the Crystal form entry in data set [3] (FaSSIF, 37° C., 24 h) is “Changed”; in data set [3] (FeSSIF, 37° C., 0.5 h), “Initial crystal form”; in data set [3] (FeSSIF, 37° C., 2 h), “Changed”; in data set [3] (FeSSIF, 37° C., 24 h), “Changed”; in data set [3] (SGF, 37° C., 0.5 h), “Initial Crystal form”; in data set [3] (SGF, 37° C., 2 h), “Changed”. The Crystal form entry in data set [3] (SGF, 37° C., 24 h) is recorded as “Changed”. The “Solubility” value in data set [3] (FaSSIF, 37° C., 0.5 h) came to 4.2 µg/mL (≈ 9.05 µM); in data set [3] (FaSSIF, 37° C., 2 h), 4.8 µg/mL (≈ 10.3 µM); in data set [3] (FaSSIF, 37° C., 24 h), 4.3 µg/mL (≈ 9.27 µM); in data set [3] (FeSSIF, 37° C., 0.5 h) it was 220 µg/mL (≈ 474 µM); in data set [3] (FeSSIF, 37° C., 2 h) it was 180 µg/mL (≈ 388 µM); in data set [3] (FeSSIF, 37° C., 24 h) it was 57 µg/mL (≈ 123 µM). The “Solubility” value came to 120 µg/mL (≈ 259 µM) in data set [3] (SGF, 37° C., 0.5 h); 63 µg/mL (≈ 136 µM) in data set [3] (SGF, 37° C., 2 h); 46 µg/mL (≈ 99.2 µM) in data set [3] (SGF, 37° C., 24 h). Moreover, the pH in data set [3] (FaSSIF, 37° C., 0.5 h) stood at 6.62; in data set [3] (FaSSIF, 37° C., 2 h), 6.63; in data set [3] (FaSSIF, 37° C., 24 h), 6.63; in data set [3] (FeSSIF, 37° C., 0.5 h) it was 5.04; in data set [3] (FeSSIF, 37° C., 2 h), 5.05; in data set [3] (FeSSIF, 37° C., 24 h) it was 5.02. The pH in data set [3] (SGF, 37° C., 0.5 h) was 1.24; in data set [3] (SGF, 37° C., 2 h) it was 1.24; in data set [3] (SGF, 37° C., 24 h), 1.23.

`O=C(Nc1ccc(OC(F)(F)Cl)cc1)c1cnc(N2CC[C@@H](F)C2)c(-c2cnccn2)c1` [the crystal form I of compound A]: the “Solubility” value is around 73670 µg/mL (≈ 159000 µM) in data set [6] (solvent: 2-Butanone); around 77000 µg/mL (≈ 166000 µM) in data set [6] (solvent: Acetone); around 53250 µg/mL (≈ 115000 µM) in data set [6] (solvent: Acetonitrile); around 1310 µg/mL (≈ 2820 µM) in data set [6] (solvent: Ethanol); around 49250 µg/mL (≈ 106000 µM) in data set [6] (solvent: Ethyl Acetate); around 730 µg/mL (≈ 1570 µM) in data set [6] (solvent: Isobutanol). In addition, the “Solubility” value in data set [6] (solvent: Isopropyl Acetate) was around 22100 µg/mL (≈ 47600 µM); in data set [6] (solvent: Isopropyl Alcohol) it was around 920 µg/mL (≈ 1980 µM); in data set [6] (solvent: Methanol) it was around 11830 µg/mL (≈ 25500 µM); in data set [6] (solvent: Methyl Tert-Butyl Ether), around 2800 µg/mL (≈ 6040 µM); in data set [6] (solvent: Tetrahydrofuran), around 121000 µg/mL (≈ 261000 µM); in data set [6] (solvent: Toluene), around 1230 µg/mL (≈ 2650 µM). For the same compound, the “Solubility (mg/mL)” value in data set [6] (solvent: Water) is <<0.55 mg/mL.

As to `O=C(Nc1ccc(OC(F)(F)Cl)cc1)c1cnc(N2CC[C@@H](F)C2)c(-c2cnccn2)c1` [crystal form VII of compound A, (R)-N-(4-(chlorodifluoromethoxy)phenyl)-6-(3-fluoropyrrolidin-1-yl)-5-(pyrazin-2-yl)nicotinamide], the “solid form / crystallinity” value in data set [4] (listed as crystal form VII) is given as “transformed into amorphous forms”.

Regarding `O=C(Nc1ccc(OC(F)(F)Cl)cc1)c1cnc(N2CC[C@@H](F)C2)c(-c2cnccn2)c1` [crystal form III of compound A, (R)-N-(4-(chlorodifluoromethoxy)phenyl)-6-(3-fluoropyrrolidin-1-yl)-5-(pyrazin-2-yl)nicotinamide], the “solid form / crystallinity” value in data set [4] (listed as crystal form III) was “transformed into amorphous forms”.

For `Cc1ccc(S(=O)(=O)O)cc1.O=C(Nc1ccc(OC(F)(F)Cl)cc1)c1cnc(N2CC[C@@H](F)C2)c(-c2cnccn2)c1`, the Purity in data set [2] (40° C./75% RH, Day 0, HPLC) came to 97.9%; in data set [2] (40° C./75% RH, Day 3, HPLC), 97.9%; in data set [2] (40° C./75% RH, Day 7, HPLC) it was 97.9%; in data set [2] (60° C., Day 0, HPLC) it was 97.9%; in data set [2] (60° C., Day 3, HPLC) it was 97.9%; in data set [2] (60° C., Day 7, HPLC), 97.9%. In addition, the Crystal form entry in data set [2] (40° C./75% RH, Day 3, XRPD) is given as “Initial crystal form”; in data set [2] (40° C./75% RH, Day 7, XRPD), “Initial crystal form”; in data set [2] (60° C., Day 3, XRPD), “Initial crystal form”; in data set [2] (60° C., Day 7, XRPD), “Initial crystal form”; in data set [3] (FaSSIF, 37° C., 0.5 h) it was “Changed”; in data set [3] (FaSSIF, 37° C., 2 h), “Changed”. Further, the Crystal form entry in data set [3] (FaSSIF, 37° C., 24 h) was “Changed”; in data set [3] (FeSSIF, 37° C., 0.5 h) it was “Changed”; in data set [3] (FeSSIF, 37° C., 2 h), “Changed”; in data set [3] (FeSSIF, 37° C., 24 h), “Changed”; in data set [3] (SGF, 37° C., 0.5 h), “Initial crystal form”; in data set [3] (SGF, 37° C., 2 h) it was “Initial crystal form”. Further, in data set [3] (SGF, 37° C., 24 h), the Crystal form result is recorded as “Changed”. In addition, the “Solubility” value in data set [3] (FaSSIF, 37° C., 0.5 h) came to 4.5 µg/mL; in data set [3] (FaSSIF, 37° C., 2 h), 3.7 µg/mL; in data set [3] (FaSSIF, 37° C., 24 h), 16 µg/mL; in data set [3] (FeSSIF, 37° C., 0.5 h), 100 µg/mL; in data set [3] (FeSSIF, 37° C., 2 h), 93 µg/mL; in data set [3] (FeSSIF, 37° C., 24 h), 180 µg/mL. The “Solubility” value is 97 µg/mL in data set [3] (SGF, 37° C., 0.5 h); 67 µg/mL in data set [3] (SGF, 37° C., 2 h); 45 µg/mL in data set [3] (SGF, 37° C., 24 h). The pH in data set [3] (FaSSIF, 37° C., 0.5 h) stood at 6.38; in data set [3] (FaSSIF, 37° C., 2 h) it was 3.48; in data set [3] (FaSSIF, 37° C., 24 h), 1.91; in data set [3] (FeSSIF, 37° C., 0.5 h), 4.53; in data set [3] (FeSSIF, 37° C., 2 h) it was 4.51; in data set [3] (FeSSIF, 37° C., 24 h), 4.50. Besides, the pH in data set [3] (SGF, 37° C., 0.5 h) amounted to 1.23; in data set [3] (SGF, 37° C., 2 h) it was 1.19; in data set [3] (SGF, 37° C., 24 h) it was 1.18.
